Experimental data published in patent publication US6342519B2, “Oxetanone derivatives” (2 Pro Chemical, priority 1999, dated 2002).

Columns and labels:
human lipase = target: T1, human lipase (Homo sapiens, UniProt P16233); assay: Lipase inhibition assay, Lipase #1 solution (Aldrich Lipase PS Standard); format: biochemical; conditions: Lipase #1 (human lipase), 20 mL of compound stock solution in 0.2 N HCl, Sigma Lipase Substrate, pH about 8, 30 minutes, 35-37° C., titration with 0.025 N NaOH, two runs
T1 construct: purchased Aldrich Product No. 8054
T1 sequence (P16233 17-465): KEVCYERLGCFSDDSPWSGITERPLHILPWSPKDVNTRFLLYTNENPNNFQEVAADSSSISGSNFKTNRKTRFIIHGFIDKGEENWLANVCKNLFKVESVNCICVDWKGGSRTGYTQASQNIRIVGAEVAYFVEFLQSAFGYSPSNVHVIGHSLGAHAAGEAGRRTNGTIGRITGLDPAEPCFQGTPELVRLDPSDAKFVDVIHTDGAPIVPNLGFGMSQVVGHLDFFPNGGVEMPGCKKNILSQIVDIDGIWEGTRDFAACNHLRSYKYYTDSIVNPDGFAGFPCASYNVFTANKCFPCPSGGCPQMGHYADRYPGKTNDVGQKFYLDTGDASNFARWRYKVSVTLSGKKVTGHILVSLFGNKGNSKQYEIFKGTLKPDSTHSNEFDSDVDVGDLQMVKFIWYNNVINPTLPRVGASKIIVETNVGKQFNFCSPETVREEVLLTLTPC
Procedure: (§1) Lipase inhibition assays were performed essentially as follows using each of Compounds A and B.
(§2) A 1 L stock solution of 1N NaOH was made and a 500 mL stock solution of 0.025 N NaOH was made by diluting a portion of the stock 1N solution. Also a stock solution of 0.2 N HCl was made. A 100 mL TRIZMA solution (from Aldrich Lipase Assay Kit Cat. No. 800B) was diluted with 100 mL of denatured EtOH and 300 mL of water to form a 500 mL TEW solution. Compound A from Example 6 (100 mg) was added to a portion of the 0.2 N HCl stock solution and diluted to a final volume of 300 mL with the same HCl stock solution to form a compound A stock solution. […]
(§3) In a 500 mL beaker equipped with a heat source and a magnetic stirrer was added 100 mL of distilled water, 10 mL of TEW solution, 10 mL of Sigma Lipase Substrate and a 20 mL sample (sample control was 20 mL of the stock 0.2 N HCl solution, sample A was 20 mL of the compound A stock solution, and sample B was 20 mL of the compound B stock solution). The pH was adjusted to about 8 with 1N NaOH using a pH meter, whose reading was noted and recorded as a baseline reading after the pH adjustment. […] The volume of NaOH solution used to return to the baseline pH reading was noted and recorded. […]

[1] = target: T2, Pork Pancreas Lipase [EC 3.1.1.3] (Sus scrofa, UniProt P00591); assay: Lipase inhibition assay, Lipase #2 solution (Aldrich Pork Pancreas Lipase); format: biochemical; conditions: Lipase #2 (pork pancreas lipase), 20 mL of compound stock solution in 0.2 N HCl, Sigma Lipase Substrate, pH about 8, 30 minutes, 35-37° C., titration with 0.025 N NaOH, two runs
T2 construct: purchased Aldrich Product No. 32313; host or cells: pork pancreas
T2 sequence (P00591 1-450): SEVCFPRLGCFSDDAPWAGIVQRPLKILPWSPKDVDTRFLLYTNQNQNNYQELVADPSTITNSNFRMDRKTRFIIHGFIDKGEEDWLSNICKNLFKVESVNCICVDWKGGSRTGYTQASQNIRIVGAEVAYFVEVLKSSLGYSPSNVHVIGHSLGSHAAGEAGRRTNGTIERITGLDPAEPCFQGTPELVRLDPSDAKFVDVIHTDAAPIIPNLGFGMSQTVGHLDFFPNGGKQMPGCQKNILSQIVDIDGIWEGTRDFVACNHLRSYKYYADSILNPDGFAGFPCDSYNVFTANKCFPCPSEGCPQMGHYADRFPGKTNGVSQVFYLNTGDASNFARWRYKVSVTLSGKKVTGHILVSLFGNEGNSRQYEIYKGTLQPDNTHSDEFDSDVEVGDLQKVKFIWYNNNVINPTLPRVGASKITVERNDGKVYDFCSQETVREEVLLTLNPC
Procedure: as §1, §2, §3

[2] = Oil binding assay with olive oil and food-coloured water; format: physicochemical; conditions: for oil binding, observation: olive oil/substance 1.5/1 ratio by weight, then 4 mL of water with food coloring
Procedure: Oil binding assay were performed using each of Compounds A and B using the procedures essentially as follows.
Six controls were obtained by adding Star Brand Olive Oil (extra virgin light colored olive oil) to 4 or 7 mL sample bottles, which were photographed at a distance of 10 inches by using an IZONE POLAROID camera as follows.
For comparison with Control 4 (oil/chitosan 1.5/1 ratio) each of Compounds A and B were mixed with oil in the same ratio(oil/compound 1.5/1 ratio, green food coloring was added to the aqueous portion of the compound A sample bottle and blue food coloring was added to the aqueous portion of the compound B sample bottle).
For comparison with Control 6 (oil/chitosan 8:1 ratio and 1 mL of aqueous solution with food coloring), compound B was added to 8 times its weight of oil and stirred to a uniform consistency. The 1 mL of water was added and 5 drops of red food coloring were added.

[3] = test system: absorption of dietary fat; conditions: 120 mg dose taken before, or up to one hour after, a fat-containing meal; average person; cited from earlier work

Compound	percent inhibition with respect to the control (human lipase)	percent inhibition with respect to the control [1]	oil binding, observation [2]	water absorbed after binding oil ([2]; olive oil/compound 8:1, 1 mL of water)	tightness of oil binding compared with chitosan and compound A ([2]; olive oil/substance 1.5/1 ratio)	oil binding and water uptake, observation ([2]; olive oil/substance 8:1 ratio by weight, then 1 mL of water and 5 drops of red food coloring)	share of the fat eaten at a given meal that is not absorbed [3]
2S, 3S, 4S [2-{(hexanoic acid modified chitosan 6-hexanoylamido}-4-methylvaleryloxy]-2-hexyl-hexadecanoic 1,3-lactone [Compound A]	about 50%	about 50%	oil is bound tightly at the bottom of the bottle and there is substantially no floating oil				
4-[{(hexanoic acid modified chitosan 6-hexanoyloxy}-2-hexyl-hexadecanoic 1,3-lactone [Compound B]	about 50%	about 50%	oil is bound tightly at the bottom of the bottle and there is substantially no floating oil	at least its weight in water	appeared to perhaps bind the oil more tightly than either chitosan or compound A	uniformly absorbed the 1 mL of aqueous food coloring solution to form a homogenous layer which was present even after 24 hours	
CCCCCCCCCCC[C@@H](C[C@@H]1OC(=O)[C@H]1CCCCCC)OC(=O)[C@H](CC(C)C)NC=O [Orlistat, (2S,3S,5S)-5-[(S)-2-formamido-4-methyl-valeryloxy]-2-hexyl-3-hydroxy-hexadecanoic 1,3 acid lactone]							up to one-third
